Here are results for three compounds from patent publication US10414767B2, “Deuterated quinazolinone compound and pharmaceutical composition comprising same” (Suzhou Zelgen Biopharmaceuticals Co., Ltd., priority 2014, dated 2019).

The target in this experiment is PI3Kδ kinase (Homo sapiens, UniProt O00329). Put plainly: In vitro pharmacodynamics evaluation to PI3K kinases.

A value given as a limit tells only on which side of the number the result lay.

Chain of PI3Kδ kinase (O00329 whole entry): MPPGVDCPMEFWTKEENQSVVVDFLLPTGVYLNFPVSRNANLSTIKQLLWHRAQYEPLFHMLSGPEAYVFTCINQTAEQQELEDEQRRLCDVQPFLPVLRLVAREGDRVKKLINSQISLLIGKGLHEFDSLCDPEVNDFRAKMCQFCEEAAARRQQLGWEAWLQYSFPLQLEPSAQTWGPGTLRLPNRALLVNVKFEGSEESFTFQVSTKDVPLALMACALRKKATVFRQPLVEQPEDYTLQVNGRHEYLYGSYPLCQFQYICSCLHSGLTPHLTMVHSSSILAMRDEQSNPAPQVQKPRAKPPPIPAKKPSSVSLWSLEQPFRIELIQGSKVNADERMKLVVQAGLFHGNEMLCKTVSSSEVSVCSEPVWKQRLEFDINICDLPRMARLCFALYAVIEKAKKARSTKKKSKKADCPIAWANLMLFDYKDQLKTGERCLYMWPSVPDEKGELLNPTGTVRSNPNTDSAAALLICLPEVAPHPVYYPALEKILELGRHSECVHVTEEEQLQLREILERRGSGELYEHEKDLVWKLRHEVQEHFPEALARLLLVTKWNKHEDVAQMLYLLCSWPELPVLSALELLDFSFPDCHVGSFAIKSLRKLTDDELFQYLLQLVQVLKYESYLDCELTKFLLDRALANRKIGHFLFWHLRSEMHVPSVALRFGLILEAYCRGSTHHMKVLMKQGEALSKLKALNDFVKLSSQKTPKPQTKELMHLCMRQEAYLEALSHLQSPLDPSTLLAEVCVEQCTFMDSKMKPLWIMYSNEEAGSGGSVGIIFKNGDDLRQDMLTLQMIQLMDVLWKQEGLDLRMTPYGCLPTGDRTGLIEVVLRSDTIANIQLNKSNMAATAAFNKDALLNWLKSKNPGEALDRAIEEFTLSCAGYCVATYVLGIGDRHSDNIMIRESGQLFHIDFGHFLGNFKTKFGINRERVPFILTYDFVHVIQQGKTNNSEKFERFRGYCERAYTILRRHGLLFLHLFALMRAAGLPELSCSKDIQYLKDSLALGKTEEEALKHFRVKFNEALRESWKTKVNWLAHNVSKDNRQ
Chain of PI3Kδ kinase (P27986 whole entry partner): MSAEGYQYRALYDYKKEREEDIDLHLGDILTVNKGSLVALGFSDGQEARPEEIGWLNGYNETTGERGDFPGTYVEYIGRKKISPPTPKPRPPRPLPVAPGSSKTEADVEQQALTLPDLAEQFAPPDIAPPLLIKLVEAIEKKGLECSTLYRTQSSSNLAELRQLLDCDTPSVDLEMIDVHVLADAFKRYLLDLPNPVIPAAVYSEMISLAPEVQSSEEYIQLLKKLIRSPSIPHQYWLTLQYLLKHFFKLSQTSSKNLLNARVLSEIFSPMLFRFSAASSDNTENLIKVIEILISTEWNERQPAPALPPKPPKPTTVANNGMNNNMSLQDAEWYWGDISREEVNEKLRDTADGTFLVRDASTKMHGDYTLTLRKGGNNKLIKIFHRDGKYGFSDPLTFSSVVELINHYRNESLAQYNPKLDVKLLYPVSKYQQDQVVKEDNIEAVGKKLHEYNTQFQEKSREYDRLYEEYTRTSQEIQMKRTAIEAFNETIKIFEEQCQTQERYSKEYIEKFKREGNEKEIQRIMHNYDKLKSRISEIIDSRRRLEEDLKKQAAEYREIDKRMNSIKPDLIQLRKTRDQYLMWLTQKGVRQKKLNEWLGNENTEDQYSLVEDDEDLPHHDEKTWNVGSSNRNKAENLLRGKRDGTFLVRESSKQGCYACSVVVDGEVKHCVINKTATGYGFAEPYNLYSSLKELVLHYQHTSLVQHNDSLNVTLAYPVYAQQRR

A word on the IC50: it is the point on the concentration scale where inhibition reaches its midpoint. A high value points to lower potency. Consider `[2H][C@@](C)(Nc1ncnc2[nH]cnc12)c1nc2ccc(F)cc2c(=O)n1-c1ccccc1` [Example 8, (S)-2-(1-(9H-purin-6-yl-amino)-1-d-ethyl)-6-fluoro-3-phenyl quinazoline-4(3H)-ketone], for which the IC50 is less than 20 nM.

Turning to `[2H]C([2H])([2H])[C@]([2H])(Nc1ncnc2[nH]cnc12)c1nc2ccc(F)cc2c(=O)n1-c1ccccc1` [Example 9, (S)-2-(1-(9H-purin-6-yl-amino)-1,2,2,2-d4-ethyl)-6-fluoro-3-phenyl quinazoline-4(3H)-ketone], the IC50 was less than 20 nM. Then `[2H]C([2H])([2H])[C@H](Nc1ncnc2[nH]cnc12)c1nc2ccc(F)cc2c(=O)n1-c1ccccc1` [Example 10, (S)-2-(1-(9H-purin-6-yl-amino)-2,2,2-d3-ethyl)-6-fluoro-3-phenyl quinazoline-4(3H)-ketone], with less than 20 nM.
